Literature values in patent US20050244498A1 (priority 2001, published 2005).

Details: in vivo

Compound	elimination half-life
COc1ccc(C(CN(C)C)C2(O)CCCCC2)cc1 (racemic) [venlafaxine, (R/S)-1-[2-(dimethylamino)-1-(4methoxyphenyl)ethyl]cyclohexanol]	about 4 hours
CN(C)CC(c1ccc(O)cc1)C1(O)CCCCC1 (centres unmarked) [active metabolite, O-desmethylvenlafaxine]	about 8 hours
